According to BindingDB's records for patent US20240300941 (Zhuhai Yufan Biotechnologies, 2024):

What follows are compounds tested against Mitogen-activated protein kinase kinase kinase kinase 1 (Homo sapiens, UniProt Q92918) (assay: HPK1 ADP-Glo Enzyme Assay).
Description: The buffer used in the enzyme assay contains 5 mM MOPS (pH=7.2), 2.5 mM β-Glycerol Phosphate, 0.4 mM EDTA, 1 mM EGTA, 0.05 mM DTT, 5 mM MgCl2. The compound was dissolved in 100% DMSO at the concentration was 10 mM. The initial concentration of the test was 5 uM, and ten data points were diluted by three-fold gradient, and each point was repeatedly measured twice. The HPK1 protein was purchased from Thermo (Cat. No. PV6355) and diluted to 2× stock solution at the concentration of 10 nM (the final concentration of the enzyme assay was 5 nM). 2.5 µl of 2×HPK1 protein was added to each well of the plate containing the test compound, centrifuged at 1000 rpm for 30 seconds, and then incubated at 25° C. for 15 minutes. MBP protein was purchased from Millipore (Cat. No. 13-110) and ATP was purchased from Sigma (Cat. No. A7699-5G) and the two were formulated into 2× working solutions at concentrations of 4 uM and 80 uM. Added 2.5 μl mixture of 2×MBP and ATP, centrifuged at 1000 rpm for 30 seconds, then incubated at 25° C. for 90 minutes. Then added 5 ul of ADP-Glo (Promega, Cat. No. V9102) to the assay plate and incubated […] at 25° C. for 60 minutes. Finally, 10 ul of the kinase assay reagent (Promega, Cat. No. V9102) was added to the assay plate, centrifuged at 1000 rpm for 30 seconds at 25° C. for 60 minutes, and the […] was determined.

Chain of Mitogen-activated protein kinase kinase kinase kinase 1 (Q92918 whole entry): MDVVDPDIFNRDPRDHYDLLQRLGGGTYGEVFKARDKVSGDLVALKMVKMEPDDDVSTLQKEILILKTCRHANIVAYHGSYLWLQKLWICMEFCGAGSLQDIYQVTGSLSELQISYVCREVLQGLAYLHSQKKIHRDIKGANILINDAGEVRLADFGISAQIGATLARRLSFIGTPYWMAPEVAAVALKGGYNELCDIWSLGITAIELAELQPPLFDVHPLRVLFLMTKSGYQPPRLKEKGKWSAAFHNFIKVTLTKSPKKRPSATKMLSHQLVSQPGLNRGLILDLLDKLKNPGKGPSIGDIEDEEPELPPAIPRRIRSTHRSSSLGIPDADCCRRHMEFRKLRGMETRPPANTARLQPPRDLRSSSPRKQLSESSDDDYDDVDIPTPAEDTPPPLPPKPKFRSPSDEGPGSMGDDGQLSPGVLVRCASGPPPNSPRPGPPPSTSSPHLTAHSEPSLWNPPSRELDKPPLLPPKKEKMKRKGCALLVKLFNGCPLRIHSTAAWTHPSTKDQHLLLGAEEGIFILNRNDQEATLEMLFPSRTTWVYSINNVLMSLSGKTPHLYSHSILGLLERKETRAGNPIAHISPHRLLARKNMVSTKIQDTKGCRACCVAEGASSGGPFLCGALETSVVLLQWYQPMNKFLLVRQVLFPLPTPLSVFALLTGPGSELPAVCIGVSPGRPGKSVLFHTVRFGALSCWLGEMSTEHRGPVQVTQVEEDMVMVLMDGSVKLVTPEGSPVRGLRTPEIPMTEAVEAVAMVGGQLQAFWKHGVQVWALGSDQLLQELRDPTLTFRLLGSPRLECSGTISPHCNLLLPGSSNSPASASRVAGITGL

Structure (SMILES)	IC50
CN1CCC(n2cc(-c3cnc(N)c(OCc4ccncc4)n3)c(N)n2)CC1 [US20240300941, Compound A14]	100 to 1000 nM
CN1CCC(c2ncc(-c3cnc(N)c(OCc4cccc(C#CC5(O)CCCC5)c4)c3)s2)CC1 [US20240300941, Compound A34]	< 100 nM
CN1CCN(c2ncc(-c3cnc(N)c(OCc4ccncc4)c3)s2)CC1 [US20240300941, Compound A12]	< 100 nM
Nc1ncc(-c2cnc(C3CCNCC3)s2)cc1OCc1ccncc1 [US20240300941, Compound A7]	< 100 nM
CN1CCC(c2ncc(-c3cnc(N)c(OCc4cccc(C#CC(C)(C)O)c4)c3)s2)CC1 [US20240300941, Compound A3]	< 100 nM
COc1ccc(COc2cc(-c3cnc(C4CCN(C)CC4)s3)cnc2N)cc1 [US20240300941, Compound A9]	> 1000 nM
CN1CCC(c2ncc(-c3cnc(N)c(OC(C)(C)c4ccncc4)c3)s2)CC1 [US20240300941, Compound A6]	> 1000 nM
CN1CCC(c2ncc(-c3cnc(N)c(OCc4cccc(C#CC5(O)CCCCC5)c4)c3)s2)CC1 [US20240300941, Compound A38]	> 1000 nM
CN1CCC(c2ncc(-c3cnc(N)c(OCc4ccnc(C#CC(C)(C)O)c4)c3)s2)CC1 [US20240300941, Compound A10]	< 100 nM
CC(C)(O)C#Cc1cccc(COc2cc(-c3cnc(C4CCNCC4)s3)cnc2N)c1 [US20240300941, Compound A42]	< 100 nM
CN1CCC(c2ncc(-c3cnc(N)c(OCc4ccnc(Cl)c4)c3)s2)CC1 [US20240300941, Compound A8]	< 100 nM
Nc1ncc(-c2cnc(C3CCOCC3)s2)cc1OCc1ccncc1 [US20240300941, Compound A13]	< 100 nM
Cc1nc(C2CCN(C)CC2)sc1-c1cnc(N)c(OCc2cccc(C#CC(C)(C)O)c2)c1 [US20240300941, Compound A62]	100 to 1000 nM
Nc1ncc(-c2cnc(C3CCCCC3)s2)cc1OCc1ccncc1 [US20240300941, Compound A37]	< 100 nM
CN1CCC(c2ncc(-c3cnc(N)c(OCc4cccc(C#CC5(O)CCC5)c4)c3)s2)CC1 [US20240300941, Compound A40]	< 100 nM
CC(C)c1ncc(-c2cnc(N)c(OCc3cccc(C#CC(C)(C)O)c3)c2)s1 [US20240300941, Compound A41]	< 100 nM
CC(C)c1ncc(-c2cnc(N)c(OCc3ccncc3)c2)s1 [US20240300941, Compound A36]	< 100 nM
